Test results as given in US8076487B2, “Pyridone derivative and herbicide” (Kumiai Chemical Industry Co., Ltd., priority 2006, dated 2011).

How the values were obtained:
Type in all cases: in vivo
[1] = tested on: barnyardgrass (Echinochloa crus-galli (L.) P. Beauv. var. crus-galli); test: Test Example 2: herbicidal effect by soil application to upland field; conditions: soil surface spray, upland field soil, 1,000 g active ingredient per hectare, 21st day after application
In short: (§1)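 Soil surface treatment after sowing: wettable powder in water, 1,000 g a.i./ha, spray volume 1,000 L/ha. Greenhouse. Scored on a standard herbicidal scale at day 21.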

[2] = tested on: green foxtail (Setaria viridis (L.) P. Beauv.); test: as above; conditions: soil surface spray, upland field soil, 1,000 g active ingredient per hectare, 21st day after application
In short: as §1

[3] = tested on: velvetleaf (Abutilon theophrasti medicus); test: as above; conditions: soil surface spray, upland field soil, 1,000 g active ingredient per hectare, 21st day after application
In short: as §1

[4] = tested on: slender amaranth (Amaranthus viridis L.); test: as above; conditions: soil surface spray, upland field soil, 1,000 g active ingredient per hectare, 21st day after application
In short: as §1

[5] = tested on: barnyardgrass (Echinochloa crus-galli (L.) P. Beauv. var. crus-galli); test: Test Example 3: herbicidal effect by application to upland field (foliage treatment); conditions: foliage treatment, 1,000 g active ingredient per 1 hectare, 14th day after application, greenhouse
In short: (§2)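 A single foliar application of a water-diluted wettable powder, at 1,000 g of active ingredient per hectare, was made to plants raised for two weeks from seed in field soil. Herbicidal activity was judged visually after a further 14 days in the greenhouse.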

[6] = tested on: green foxtail (Setaria viridis (L.) P. Beauv.); test: as above; conditions: foliage treatment, 1,000 g active ingredient per 1 hectare, 14th day after application, greenhouse
In short: as §2

[7] = tested on: velvetleaf (Abutilon theophrasti medicus); test: as above; conditions: foliage treatment, 1,000 g active ingredient per 1 hectare, 14th day after application, greenhouse
In short: as §2

[8] = tested on: slender amaranth (Amaranthus viridis L.); test: as above; conditions: foliage treatment, 1,000 g active ingredient per 1 hectare, 14th day after application, greenhouse
In short: as §2

[9] = tested on: early watergrass (Echinochloa oryzicola Vasing); test: Test Example 1: herbicidal effect by soil application to paddy field; conditions: paddy field soil application; active ingredient 1,000 g per 1 hectare; wettable powder added dropwise to water surface the day after sowing; examined on the 21st day after application
In short: (§3)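 Under greenhouse conditions, seeds sown on puddled paddy soil in 100 cm2 pots under 3 cm of standing water received the test compound; injury was assessed with a standard scoring scheme three weeks (day 21) after treatment.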

[10] = tested on: heartshape false pickerelweed (Monochoria vaginalis (Burm.f.) C.Presl); test: as above; conditions: paddy field soil application; active ingredient 1,000 g per 1 hectare; wettable powder added dropwise to water surface the day after sowing; examined on the 21st day after application
In short: as §3

[11] = tested on: Japanese bulrush (Scirpus juncoides Roxb.); test: as above; conditions: paddy field soil application; active ingredient 1,000 g per 1 hectare; wettable powder added dropwise to water surface the day after sowing; examined on the 21st day after application
In short: as §3

Row | SMILES | herbicidal effect (index), Barnyardgrass [1] | herbicidal effect (index), Green Foxtail [2] | herbicidal effect (index), Velvetleaf [3] | herbicidal effect (index), Slender Amaranth [4] | herbicidal effect, Barnyardgrass [5] | herbicidal effect, Green Foxtail [6] | herbicidal effect, Velvetleaf [7] | herbicidal effect, Slender Amaranth [8] | herbicidal effect, Echinochloa oryzicola Vasing [9] | herbicidal effect, Monochoria vaginalis (Burm. f.) C. Presl [10] | herbicidal effect, Scirpus juncoides Roxb. [11]
1 | COCCCn1c(C(F)(F)F)ccc(C(=O)C2=C(O)C3CCC(C3)C2=O)c1=O (stereo not drawn) [III-22] | 5 (90% or more of herbicidal effect and crop phytotoxicity) | 5 (90% or more of herbicidal effect and crop phytotoxicity) | 5 (90% or more of herbicidal effect and crop phytotoxicity) | 5 (90% or more of herbicidal effect and crop phytotoxicity) | 5 (90% or more of herbicidal effect and crop phytotoxicity) | 5 (90% or more of herbicidal effect and crop phytotoxicity) | 5 (90% or more of herbicidal effect and crop phytotoxicity) | 5 (90% or more of herbicidal effect and crop phytotoxicity) | 5 (90% or more of herbicidal effect and crop phytotoxicity) | 5 (90% or more of herbicidal effect and crop phytotoxicity) | 5 (90% or more of herbicidal effect and crop phytotoxicity)
2 | O=C1CCCC(O)=C1C(=O)c1ccc(C(F)(F)F)n(NCC2CC2)c1=O [I-164] | 5 (90% or more of herbicidal effect and crop phytotoxicity) | 5 (90% or more of herbicidal effect and crop phytotoxicity) | 5 (90% or more of herbicidal effect and crop phytotoxicity) | 5 (90% or more of herbicidal effect and crop phytotoxicity) | 5 (90% or more of herbicidal effect and crop phytotoxicity) | 5 (90% or more of herbicidal effect and crop phytotoxicity) | 5 (90% or more of herbicidal effect and crop phytotoxicity) | 5 (90% or more of herbicidal effect and crop phytotoxicity) | 5 (90% or more of herbicidal effect and crop phytotoxicity) | 5 (90% or more of herbicidal effect and crop phytotoxicity) | 5 (90% or more of herbicidal effect and crop phytotoxicity)
3 | CCCCNn1c(C(F)(F)F)ccc(C(=O)C2=C(O)CCCC2=O)c1=O [I-161] | 5 (90% or more of herbicidal effect and crop phytotoxicity) | 5 (90% or more of herbicidal effect and crop phytotoxicity) | 5 (90% or more of herbicidal effect and crop phytotoxicity) | 5 (90% or more of herbicidal effect and crop phytotoxicity) | 5 (90% or more of herbicidal effect and crop phytotoxicity) | 5 (90% or more of herbicidal effect and crop phytotoxicity) | 5 (90% or more of herbicidal effect and crop phytotoxicity) | 5 (90% or more of herbicidal effect and crop phytotoxicity) | 5 (90% or more of herbicidal effect and crop phytotoxicity) | 5 (90% or more of herbicidal effect and crop phytotoxicity) | 5 (90% or more of herbicidal effect and crop phytotoxicity)
